These molecules were tested on NaCT-CHO (CHO cells stably expressing human NaCT) (assay: Assay of the citric acid cycle activation ([1,5-14C]-citric acid, diffusion of [14C]-CO2)). Conditions: 1 hour incubation at 37° C. with [1,5-14C]-citric acid.
Format: cell-based
Description: Assay of the Citric Acid Cycle Activation
(1) Construction of the Human NaCT Expression Vector pME-NaCT
The human NaCT (also called SLC13A5 or NAC2; GenBank accession No. NM_177550) cDNA was inserted into the EcoRI-NotI site of the mammalian expression vector pME18S (GenBank accession No. AB009864) and purified by Qiagen Plasmid Maxi Kit (Qiagen).
(2) Establishment of NaCT Stably Expressed CHO Cells
The pME-NaCT vector and the pcDNA™3.1 vector containing the neomycin resistance gene (Life Technologies) were co-transfected into CHO-K1 cells (ATCC) by Lipofectaimine 2000 reagent (Life Technologies). The next day the cells were subcultured in Nutrient Mixture F-12 Ham (Sigma-Aldrich) with 10% FBS (Biological Industries), and Geneticin (Life Technologies) was added (final concentration 350 μg/mL) in the following day. CHO cell clones stably expressing NaCT were given by neomycin resistant cell screening and limiting dilution method. Established cell lines (named NaCT-CHO) were also maintained in culture medium (Nutrient Mixture F-12 Ham) with 10% FBS and 350 μg/mL Geneticin. For control cells (named pME-CHO) preparation, the naive pME18S were also transfected instead of pME-NaCT into CHO-K1 cells.
(3) Assay of the Citric Acid Cycle Activation
NaCT-CHO and pME-CHO were plated at 20,000 cells/well into white CulturPlate™-96 (PerkinElmer) two days before the assay. Prior to assay incubation, the cultured plates were washed twice with washing buffer, 10 mM HEPES-Tris(pH7.4) containing 140 mM choline chloride, 2 mM KCl, 1 mM CaCl2, 1 mM MgCl2. The compounds to be tested were dissolved and diluted in DMSO (Wako Pure Chemical industries) to 1,000 times of a final concentration, and further diluted to two times as high as the final concentration in assay buffer, 10 mM HEPES-Tris(pH7.4) containing 140 mM NaCl, 2 mM KCl, 1 mM CaCl2, 1 mM MgCl2. The range of final concentrations was properly determined based on the test compounds activity. Each 25 μL compound solution was added to well and subsequently 25 μL radio-labeled substrate solution containing 0.4 mM (0.4 MBq/mL) [1,5-^14C]-citric acid (PerkinElmer) in the assay buffer was added. After 1 hour incubation at 37° C., the reaction mixture was discarded and washed three times with pre-chilled washing buffer and then 0.1 mL MicroScint 20 (PerkinElmer) was added to well. The plate was sealed with TopSeal-A (PerkinElmer) and the radioactivity was measured using a TopCount (PerkinElmer). Non-specific activity (NS cpm) and total radio activity (Total cpm) were determined by counting of pME-CHO plated wells and NaCT-CHO plated wells without compounds, respectively. Diffusion of [^14C]—CO2 was able to be estimated from residual radioactivity (R cpm) by an equation (Total−R)/(Total−NS)×100(%). The difference of Total and R was disappeared in the presence of 0.1 μM antimycin A. EC50 values were calculated by regression analysis using SAS Statistical Analysis System (SAS institute Japan Ltd. Release 9.1).
In the case of N#Cc1[nH]nnc1-c1cc(Cl)cc(CC2CC2)c1 [Example 1, 5-(3-chloro-5-cyclopropylmethyl-phenyl)-3H-[1,2,3]triazole-4-carbonitrile], the EC50 is reported as 0.5 µM. For N#Cc1[nH]nnc1-c1cc(OCCCC(F)(F)F)cc(C(F)(F)F)c1 [Example 2, 5-[3-(4,4,4-trifluoro-butoxy)-5-trifluoromethyl-phenyl]-3H-[1,2,3]triazole-4-carbonitrile], the EC50 was 0.28 µM. N#Cc1[nH]nnc1-c1cccc(COCC2CCCCC2)c1 [Example 3, 5-(3-cyclohexylmethoxymethyl-phenyl)-3H-[1,2,3]triazole-4-carbonitrile] showed an EC50 of 0.26 µM. N#Cc1[nH]nnc1-c1cc(Cl)ccc1-c1cccc(C(F)(F)F)c1 [Example 4, 5-(4-chloro-3′-trifluoromethyl-biphenyl-2-yl)-3H-[1,2,3]triazole-4-carbonitrile] was tested, and the EC50 was 0.24 µM. N#Cc1[nH]nnc1-c1ccccc1Cc1cc(C(F)(F)F)cc(C(F)(F)F)c1 [Example 5, 5-[2-(3,5-bis-trifluoromethyl-benzyl)-phenyl]-3H-[1,2,3]triazole-4-carbonitrile] showed an EC50 of 0.2 µM. In the case of N#Cc1[nH]nnc1-c1cc(C(F)(F)F)ccc1/C=C/c1ccccc1 [Example 6, 5-[2-((E)-styryl)-5-trifluoromethyl-phenyl]-3H-[1,2,3]triazole-4-carbonitrile], the EC50 is reported as 0.4 µM. For N#Cc1[nH]nnc1-c1cc(C(F)(F)F)ccc1CCc1ccccc1 [Example 7, 5-(2-phenethyl-5-trifluoromethyl-phenyl)-3H-[1,2,3]triazole-4-carbonitrile], the EC50 was 0.17 µM. N#Cc1[nH]nnc1-c1cc(Cl)ccc1/C=C/c1cccc(C(F)(F)F)c1 [Example 8, 5-{5-chloro-2-[(E)-2-(3-trifluoromethyl-phenyl)-vinyl]-phenyl}-3H-[1,2,3]triazole-4-carbonitrile] showed an EC50 of 0.29 µM. For Cc1cc(F)cc(-c2nn[nH]c2C#N)c1OCc1cc(F)cc(C(F)(F)F)c1 [Example 9, 5-[5-fluoro-2-(3-fluoro-5-trifluoromethyl-benzyloxy)-3-methyl-phenyl]-3H-[1,2,3]triazole-4-carbonitrile], the EC50 was 0.23 µM. N#Cc1[nH]nnc1-c1cc(-c2ccsc2)cc(C(F)(F)F)c1 [Example 10, 5-(3-(thiophen-3-yl)-5-trifluoromethyl-phenyl)-3H-[1,2,3]triazole-4-carbonitrile] showed an EC50 of 0.07 µM. For N#Cc1[nH]nnc1-c1cc(-c2ccc(C(F)(F)F)nc2)cc(C2CC2)c1 [Example 12, 5-[3-cyclopropyl-5-(6-trifluoromethyl-pyridin-3-yl)-phenyl]-3H-[1,2,3]triazole-4-carbonitrile], the EC50 was 0.69 µM. For CC(C)(C)c1cc(-c2ccc(C(F)(F)F)cn2)cc(-c2nn[nH]c2C#N)c1 [Example 13, 5-[3-tert-butyl-5-(5-trifluoromethyl-pyridin-2-yl)-phenyl]-3H-[1,2,3]triazole-4-carbonitrile], the EC50 was 0.87 µM. CCOc1ccc(-c2ccc(C(F)(F)F)nc2)cc1-c1nn[nH]c1C#N [Example 16, 5-[2-ethoxy-5-(6-trifluoromethyl-pyridin-3-yl)-phenyl]-3H-[1,2,3]triazole-4-carbonitrile] gave an EC50 of 0.67 µM. With CC(C)Oc1ccc(-c2nn[nH]c2C#N)cc1-c1ccc(C(F)(F)F)nc1 [Example 17] the EC50 was 0.52 µM. With N#Cc1[nH]nnc1-c1cc(OCC2CC2)cc(-c2ccc(C(F)(F)F)cn2)c1 [Example 18, 5-[3-cyclopropylmethoxy-5-(5-trifluoromethyl-pyridin-2-yl)-phenyl]-3H-[0,1,2,3]triazole-4-carbonitrile] the EC50 was 0.57 µM. Molecule N#Cc1[nH]nnc1-c1cc(OC2CCC2)cc(-c2ccc(C(F)(F)F)nc2)c1 [Example 19, 5-[3-cyclobutoxy-5-(6-trifluoromethyl-pyridin-3-yl)-phenyl]-3H-[1,2,3]triazole-4-carbonitrile] has an EC50 of 0.53 µM. For N#Cc1[nH]nnc1-c1cc(OCc2cccc(C(F)(F)F)c2)cc(-c2ccc(C(F)(F)F)cn2)c1 [Example 20, 5-[3-(3-trifluoromethyl-benzyloxy)-5-(5-trifluoromethyl-pyridin-2-yl)-phenyl]-3H-[1,2,3]triazole-4-carbonitrile], the EC50 was 1.62 µM. For N#Cc1[nH]nnc1-c1cc(Cl)cc(N2CCC(C(F)(F)F)CC2)c1 [Example 24, 5-[3-chloro-5-(4-trifluoromethyl-piperidin-1-yl)-phenyl]-3H-[1,2,3]triazole-4-carbonitrile], the EC50 was 0.48 µM. For N#Cc1[nH]nnc1-c1cc(Cl)cc(-c2csc3ccccc23)c1 [Example 25, 5-(3-(benzo[b]thiophen-3-yl)-5-chloro-phenyl)-3H-[1,2,3]triazole-4-carbonitrile], the EC50 was 0.54 µM. With N#Cc1[nH]nnc1-c1ccc(F)c(-c2cc3ccccc3o2)c1 [Example 26, 5-(3-(benzofuran-2-yl)-4-fluoro-phenyl)-3H-[1,2,3]triazole-4-carbonitrile] the EC50 was 0.69 µM. For N#Cc1[nH]nnc1-c1cccc(-c2nc3cc(F)ccc3o2)c1 [Example 27, 5-[3-(5-fluoro-benzoxazol-2-yl)-phenyl]-3H-[1,2,3]triazole-4-carbonitrile], the EC50 was 0.89 µM. In the case of N#Cc1[nH]nnc1-c1cc(F)cc(-c2cccc(C(F)(F)F)c2)c1 [Example 28, 5-(5-fluoro-3′-trifluoromethyl-biphenyl-3-yl)-3H-[1,2,3]triazole-4-carbonitrile], the EC50 is reported as 0.37 µM. N#Cc1[nH]nnc1-c1cc(Cl)cc(-c2ccc3c(c2)OC(F)(F)O3)c1 [Example 30, 5-[3-chloro-5-(2,2-difluoro-benzo[1,3]dioxol-5-yl)-phenyl]-3H-[1,2,3]triazole-4-carbonitrile] gave an EC50 of 0.64 µM. Cc1cc(-c2cc(F)cc(C(F)(F)F)c2)cc(-c2nn[nH]c2C#N)c1 [Example 31, 5-(5′-fluoro-5-methyl-3′-trifluoromethyl-biphenyl-3-yl)-3H-[1,2,3]triazole-4-carbonitrile] gave an EC50 of 0.38 µM. COc1ccc(-c2nn[nH]c2C#N)cc1-c1ccc(F)c(F)c1 [Example 32, 5-(3′,4′-difluoro-6-methoxy-biphenyl-3-yl)-3H-[1,2,3]triazole-4-carbonitrile] was tested, and the EC50 was 0.74 µM. CCOCc1cc(-c2ccc(F)cc2)cc(-c2nn[nH]c2C#N)c1 [Example 33, 5-(5-ethoxymethyl-4′-fluoro-biphenyl-3-yl)-3H-[1,2,3]triazole-4-carbonitrile] was tested, and the EC50 was 0.27 µM. For N#Cc1[nH]nnc1-c1cc(Cc2ccc(F)cc2)cc(OC(F)(F)F)c1 [Example 34, 5-[3-(4-fluoro-benzyl)-5-trifluoromethoxy-phenyl]-3H-[1,2,3]triazole-4-carbonitrile], the EC50 was 0.46 µM. Molecule N#Cc1[nH]nnc1-c1cc(Cl)cc(Cc2cc(C(F)(F)F)ccc2C(F)(F)F)c1 [Example 35, 5-[3-(2,5-bis-trifluoromethyl-benzyl)-5-chloro-phenyl]-3H-[1,2,3]triazole-4-carbonitrile] has an EC50 of 0.34 µM. Molecule N#Cc1[nH]nnc1-c1cccc(CN2CCc3ccccc32)c1 [Example 36, 5-[3-(2,3-dihydro-indol-1-ylmethyl)-phenyl]-3H-[1,2,3]triazole-4-carbonitrile] has an EC50 of 0.45 µM. With N#Cc1[nH]nnc1-c1cc(Oc2ccccc2)cc(C(F)(F)F)c1 [Example 37, 5-(3-phenoxy-5-trifluoromethyl-phenyl)-3H-[1,2,3]triazole-4-carbonitrile] the EC50 was 0.12 µM. In the case of N#Cc1[nH]nnc1-c1cccc(Sc2ccc(Cl)cc2)c1 [Example 38, 5-[3-(4-chloro-phenylsulfanyl)-phenyl]-3H-[1,2,3]triazole-4-carbonitrile], the EC50 is reported as 0.42 µM. Work on N#Cc1[nH]nnc1-c1cc(CCc2cccc(C(F)(F)F)n2)cc(C(F)(F)F)c1 [Example 39, 5-{3-trifluoromethyl-5-[2-(6-trifluoromethyl-pyridin-2-yl)-ethyl]-phenyl}-3H-[1,2,3]triazole-4-carbonitrile] yielded an EC50 of 0.71 µM. Molecule N#Cc1[nH]nnc1-c1cccc(CCc2ccc(F)cc2F)c1 [Example 40, 5-{3-[2-(2,4-difluoro-phenyl)-ethyl]-phenyl}-3H-[1,2,3]triazole-4-carbonitrile] has an EC50 of 0.55 µM. Molecule N#Cc1[nH]nnc1-c1cccc(/C=C/c2cccc(C(F)(F)F)c2)c1Cl [Example 42, 5-{2-chloro-3-[(E)-2-(3-trifluoromethyl-phenyl)-vinyl]-phenyl}-3H-[1,2,3]triazole-4-carbonitrile] has an EC50 of 0.59 µM.

Source: patent US10626095B2, “Cyanotriazole compounds” (OTSUKA PHARMACEUTICAL CO., LTD., priority 2013, dated 2020)
